Measured values from article PMC6946862 (Molecular carcinogenesis, 2019).

Biological target: NAE1 (APP-BP1/UBA3, NEDD8-activating enzyme E1 regulatory subunit) (Homo sapiens, UniProt Q13564)
Test: in vitro NEDD8 initiation conjugation assay
Format: biochemical

Sequence of NAE1 (APP-BP1/UBA3, NEDD8-activating enzyme E1 regulatory subunit) (Q13564 2-534): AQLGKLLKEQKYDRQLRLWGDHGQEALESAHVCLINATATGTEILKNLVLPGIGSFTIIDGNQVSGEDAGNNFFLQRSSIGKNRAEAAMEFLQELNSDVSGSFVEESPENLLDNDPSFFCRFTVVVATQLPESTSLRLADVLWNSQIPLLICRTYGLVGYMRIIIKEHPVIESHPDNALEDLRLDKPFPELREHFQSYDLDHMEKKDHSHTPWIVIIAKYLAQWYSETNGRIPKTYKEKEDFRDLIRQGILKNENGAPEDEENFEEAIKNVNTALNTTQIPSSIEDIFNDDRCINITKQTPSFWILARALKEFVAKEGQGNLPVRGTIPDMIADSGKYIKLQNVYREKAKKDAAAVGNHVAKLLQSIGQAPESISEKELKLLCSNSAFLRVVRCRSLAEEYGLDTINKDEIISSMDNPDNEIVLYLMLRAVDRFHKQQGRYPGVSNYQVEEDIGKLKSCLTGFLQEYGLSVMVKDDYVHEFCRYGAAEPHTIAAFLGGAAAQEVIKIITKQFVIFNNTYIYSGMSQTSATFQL
Sequence of NAE1 (APP-BP1/UBA3, NEDD8-activating enzyme E1 regulatory subunit) (Q8TBC4 2-463 partner): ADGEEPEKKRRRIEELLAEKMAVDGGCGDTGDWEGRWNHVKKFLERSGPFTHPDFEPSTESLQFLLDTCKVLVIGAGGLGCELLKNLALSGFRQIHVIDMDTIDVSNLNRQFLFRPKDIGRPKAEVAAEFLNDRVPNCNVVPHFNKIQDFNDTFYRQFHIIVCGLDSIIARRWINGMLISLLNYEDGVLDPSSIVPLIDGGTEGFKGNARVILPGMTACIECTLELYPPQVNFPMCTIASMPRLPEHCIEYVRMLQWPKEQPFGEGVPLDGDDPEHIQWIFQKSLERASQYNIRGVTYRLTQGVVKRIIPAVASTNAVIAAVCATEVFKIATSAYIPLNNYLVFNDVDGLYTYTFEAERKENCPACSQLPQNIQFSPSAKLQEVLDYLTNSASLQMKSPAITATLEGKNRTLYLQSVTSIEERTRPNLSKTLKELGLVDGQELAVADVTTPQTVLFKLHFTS
Sequence of NAE1 (APP-BP1/UBA3, NEDD8-activating enzyme E1 regulatory subunit) (P61081 whole entry partner): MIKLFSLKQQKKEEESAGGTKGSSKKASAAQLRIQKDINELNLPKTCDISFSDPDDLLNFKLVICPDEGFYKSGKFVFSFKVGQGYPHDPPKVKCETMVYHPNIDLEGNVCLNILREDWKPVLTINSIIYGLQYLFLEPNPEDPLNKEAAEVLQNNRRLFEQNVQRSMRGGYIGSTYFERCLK
Sequence of NAE1 (APP-BP1/UBA3, NEDD8-activating enzyme E1 regulatory subunit) (Q15843 1-76 partner): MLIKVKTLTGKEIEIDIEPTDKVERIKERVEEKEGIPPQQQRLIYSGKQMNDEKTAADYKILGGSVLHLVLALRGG

**Q.** How did the IC50 turn out when `CC(C)=CCc1c(O)c(CC=C(C)C)c2oc3c(O)ccc(O)c3c(=O)c2c1O` [Gartanin] was run?
**A.** Its IC50 is ~10.3 µM.
